{"source": "patent EP1556366B1", "about": "“PROCESS FOR THE E[…] OLEFINS” (Degussa AG, priority 2002, dated 2004)", "origin": "cited, not measured here", "note": "Read-outs that look alike come from different tables or passages of the source."}
{"compound": "CN(C)C", "note": "[Me3N, trimethyl amine]", "values": [{"measurement": "pkB", "value": 4.26}, {"measurement": "pkB", "setting": "Table 2, nitrogen bases", "value": 4.26}]}
{"compound": "CN", "note": "[MeNH2, methyl amine]", "values": [{"measurement": "pkB", "value": 3.36}, {"measurement": "pkB", "setting": "Table 2, nitrogen bases", "value": 3.36}]}
